Measurements published in patent US9884063B2, “Amido-substituted azole compounds” (Bayer Pharma Aktiengesellschaft, priority 2014, dated 2018).

How the values were obtained:
[1] = system: HEK293 FOP control reporter cell line; assay: HEK293 FOP Assay (FOP control vector luciferase reporter); type: cell-based; conditions: Homo sapiens; HEK293 FOP control reporter cell line, 16 hours incubation, compound dilution series 50 μM to 15 nM
Procedure: In a parallel approach, HEK293 cells were cotransfected with the FOP control vector and pcDNA3. The FOP vector is identical to the TOP construct, but it contains instead of functional TCF elements a randomized, non-functional sequence. For this transfection a stable transfected cell line was generated as well, based on selection with Geneticin (1 mg/ml).
In preparation of the assay, the two cell lines were plated 24 hrs before beginning the test at 10000 cells per well in a 384 micro titre plate (MTP) in 30 μl growth medium. […] The recombinant human Wnt-3a was thereby applied between 2500 and 5 ng/ml in two-fold dilution steps.
Selective inhibitory activity for small molecules on the wildtype Wnt pathway was determined after parallel incubation of both (TOP and FOP) HEK293 reporter cell lines with a compound dilution series from 50 μM to 15 nM in steps of 3.16-fold dilutions in CAFTY buffer (130 mM sodium chloride, 5 mM potassium chloride, 20 mM HEPES, 1 mM magnesium chloride, 5 mM sodium bicarbonate, pH 7.4) containing 2 mM Ca^2+ and 0.01% BSA.
The compounds were thereby serially prediluted in 100% DMSO and thereafter 50 fold into the CAFTY compound dilution buffer (described above).

[2] = system: wildtype Wnt signaling cascade; assay: HEK293 TOP Assay (Super TopFlash luciferase reporter, Wnt-3a stimulated); type: cell-based; conditions: Homo sapiens, HEK293, 16 h, HEK293 TOP reporter cell line, Wnt-3a at EC50, 16 hours incubation, compound dilution series 50 μM to 15 nM
How it was run: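 Compounds (50 μM down to 15 nM, 3.16-fold steps, in CAFTY buffer pH 7.4, 2 mM Ca2+, 0.01% BSA) tested in parallel on TOP and FOP HEK293 reporter lines to define selective wildtype Wnt inhibition. Pathway driven by recombinant human Wnt-3a applied at 2500–5 ng/ml in two-fold dilutions.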

## CC(C)[C@@H](C)NC(=O)c1[nH]cnc1C(=O)Nc1ccc(NC(=O)c2ccc(F)cc2)cc1 [Example 135, N^4-{4-[(4-fluorobenzoyl)amino]phenyl}-N^5-[(2R)-3-methylbutan-2-yl]-1H-imidazole-4,5-dicarboxamide]
[1]
  IC50: 22 µM
[2]
  IC50: 7.25 µM

## CCNC(=O)c1[nH]cnc1C(=O)Nc1ccc(NC(=O)c2ccc(F)cc2)cc1 [Example 137, N^5-ethyl-N^4-{4-[(4-fluorobenzoyl)amino]phenyl}-1H-imidazole-4,5-dicarboxamide]
[1]
  IC50: 8 µM
[2]
  IC50: 2.35 µM

## CC(C)(C)CNC(=O)c1[nH]cnc1C(=O)Nc1ccc(NC(=O)c2ccc(F)cc2)cc1 [Example 149, N^5-(2,2-dimethylpropyl)-N^4-{4-[(4-fluorobenzoyl)amino]phenyl}-1H-imidazole-4,5-dicarboxamide]
[1]
  IC50: 22 µM
[2]
  IC50: 5.2 µM

## O=C(Nc1ccc(NC(=O)c2nc[nH]c2C(=O)NCCN2CCCC(O)C2)cc1)c1ccccc1Cl (centres unmarked) [Example 152, N^4-{4-[(2-chlorobenzoyl)amino]phenyl}-N^5-{2-[3-hydroxypiperidin-1-yl]ethyl}-1H-imidazole-4,5-dicarboxamide]
[1]
  IC50: 30 µM
[2]
  IC50: 0.46 µM

## CC(C)(CN1CCCCC1)NC(=O)c1[nH]cnc1C(=O)Nc1ccc(NC(=O)c2ccc(F)cc2)cc1 [Example 156, N^4-{4-[(4-fluorobenzoyl)amino]phenyl}-N^5-[2-methyl-1-(piperidin-1-yl)propan-2-yl]-1H-imidazole-4,5-dicarboxamide]
[1]
  IC50: 15 µM
[2]
  IC50: 2.5 µM

## CC1CCN(CC(C)(C)NC(=O)c2[nH]cnc2C(=O)Nc2ccc(NC(=O)c3ccccc3Cl)cc2)CC1 [Example 158, N^4-{4-[(2-chlorobenzoyl)amino]phenyl}-N^5-[2-methyl-1-(4-methylpiperidin-1-yl)propan-2-yl]-1H-imidazole-4,5-dicarboxamide]
[1]
  IC50: 29 µM
[2]
  IC50: 1.2 µM

## O=C(Nc1ccc(NC(=O)c2nc[nH]c2C(=O)NCCN2CCCC(O)C2)cc1)c1ccc(F)cc1 (centres unmarked) [Example 167, N^4-{4-[(4-fluorobenzoyl)amino]phenyl}-N^5-[2-(3-hydroxypiperidin-1-yl)ethyl]-1H-imidazole-4,5-dicarboxamide]
[1]
  IC50: 44 µM
[2]
  IC50: 1.45 µM

## CC1CCN(CC(C)(C)NC(=O)c2[nH]cnc2C(=O)Nc2ccc(NC(=O)c3ccc(F)cc3)cc2)CC1 [Example 175, N^4-{4-[(4-fluorobenzoyl)amino]phenyl}-N^5-[2-methyl-1-(4-methylpiperidin-1-yl)propan-2-yl]-1H-imidazole-4,5-dicarboxamide]
[1]
  IC50: 27 µM
[2]
  IC50: 3.5 µM

## CN1CCN(NC(=O)c2[nH]cnc2C(=O)Nc2ccc(NC(=O)c3ccc(F)cc3Cl)cc2)CC1 [Example 177, N^4-{4-[(2-chloro-4-fluorobenzoyl)amino]phenyl}-N^5-(4-methylpiperazin-1-yl)-1H-imidazole-4,5-dicarboxamide]
[1]
  IC50: 17 µM
[2]
  IC50: 0.63 µM

## CC(CNC(=O)c1[nH]cnc1C(=O)Nc1ccc(NC(=O)c2ccc(F)cc2)cc1)N1CCCCC1 (centres unmarked) [Example 183, N^4-{4-[(4-fluorobenzoyl)amino]phenyl}-N^5-[2-(piperidin-1-yl)propyl]-1H-imidazole-4,5-dicarboxamide]
[1]
  IC50: 28 µM
[2]
  IC50: 0.68 µM

## CC(CNC(=O)c1[nH]cnc1C(=O)Nc1ccc(NC(=O)c2ccccc2Cl)cc1)N1CCN(C)CC1 (centres unmarked) [Example 186, N^4-{4-[(2-chlorobenzoyl)amino]phenyl}-N^5-[2-(4-methylpiperazin-1-yl)propyl]-1H-imidazole-4,5-dicarboxamide]
[1]
  IC50: 28 µM
[2]
  IC50: 0.42 µM

## CN1CCN(C(C)(C)CNC(=O)c2[nH]cnc2C(=O)Nc2ccc(NC(=O)c3ccc(F)cc3)cc2)CC1 [Example 188, N^4-{4-[(4-fluorobenzoyl)amino]phenyl}-N^5-[2-methyl-2-(4-methylpiperazin-1-yl)propyl]-1H-imidazole-4,5-dicarboxamide]
[1]
  IC50: 15 µM
[2]
  IC50: 5.9 µM

## CN1CCN(CC(C)(C)NC(=O)c2[nH]cnc2C(=O)Nc2ccc(NC(=O)c3ccc(F)cc3Cl)cc2)CC1 [Example 194, N^4-{4-[(2-chloro-4-fluorobenzoyl)amino]phenyl}-N^5-[2-methyl-1-(4-methylpiperazin-1-yl)propan-2-yl]-1H-imidazole-4,5-dicarboxamide]
[1]
  IC50: 2.3 µM
[2]
  IC50: 0.41 µM

## CN1CCN(CC(C)(C)NC(=O)c2[nH]cnc2C(=O)Nc2ccc(NC(=O)c3ccc(F)cc3)cc2)CC1 [Example 195, N^4-{4-[(4-fluorobenzoyl)amino]phenyl}-N^5-[2-methyl-1-(4-methylpiperazin-1-yl)propan-2-yl]-1H-imidazole-4,5-dicarboxamide]
[1]
  IC50: 12 µM
[2]
  IC50: 1.01 µM

## O=C(Nc1ccc(NC(=O)c2nc[nH]c2C(=O)NCCCCN2CCCCC2)cc1)c1ccc(F)cc1 [Example 201, N^4-{4-[(4-fluorobenzoyl)amino]phenyl}-N^5-[4-(piperidin-1-yl)butyl]-1H-imidazole-4,5-dicarboxamide]
[1]
  IC50: 0.03 µM
[2]
  IC50: 4.5 µM

## CN1CCN(C(C)(C)CNC(=O)c2[nH]cnc2C(=O)Nc2ccc(NC(=O)c3ccccc3Cl)cc2)CC1 [Example 202, N^4-{4-[(2-chlorobenzoyl)amino]phenyl}-N^5-[2-methyl-2-(4-methylpiperazin-1-yl)propyl]-1H-imidazole-4,5-dicarboxamide]
[1]
  IC50: 9.8 µM
[2]
  IC50: 1.6 µM

## CN1CCN(CC(C)(C)NC(=O)c2[nH]cnc2C(=O)Nc2ccc(NC(=O)c3ccccc3Cl)cc2)CC1 [Example 203, N^4-{4-[(2-chlorobenzoyl)amino]phenyl}-N^5-[2-methyl-1-(4-methylpiperazin-1-yl)propan-2-yl]-1H-imidazole-4,5-dicarboxamide]
[1]
  IC50: 28 µM
[2]
  IC50: 3.05 µM

## CC1CCCN(CCNC(=O)c2[nH]cnc2C(=O)Nc2ccc(NC(=O)c3ccc(F)cc3)cc2)C1 (centres unmarked) [Example 211, N^4-{4-[(4-fluorobenzoyl)amino]phenyl}-N^5-[2-(3-methylpiperidin-1-yl)ethyl]-1H-imidazole-4,5-dicarboxamide]
[1]
  IC50: 24 µM
[2]
  IC50: 0.77 µM

## O=C(Nc1ccc(NC(=O)c2nc[nH]c2C(=O)NCCCN2CCC(O)CC2)cc1)c1ccc(F)cc1Cl [Example 275, N^4-{4-[(2-chloro-4-fluorobenzoyl)amino]phenyl}-N^5-[3-(4-hydroxypiperidin-1-yl)propyl]-1H-imidazole-4,5-dicarboxamide]
[1]
  IC50: 9.6 µM
[2]
  IC50: 0.47 µM

## O=C(Nc1ccc(NC(=O)c2nc[nH]c2C(=O)NCCCN2CCCC2=O)cc1)c1ccc(F)cc1Cl [Example 299, N^4-{4-[(2-chloro-4-fluorobenzoyl)amino]phenyl}-N^5-[3-(2-oxopyrrolidin-1-yl)-propyl]-1H-imidazole-4,5-dicarboxamide]
[1]
  IC50: 43 µM
[2]
  IC50: 0.74 µM

## CC1CN(CCNC(=O)c2[nH]cnc2C(=O)Nc2ccc(NC(=O)c3ccccc3Cl)cc2)CC(C)O1 (centres unmarked) [Example 300, N^4-{4-[(2-chlorobenzoyl)amino]phenyl}-N^5-[2-(2,6-dimethylmorpholin-4-yl)-ethyl]-1H-imidazole-4,5-dicarboxamide]
[1]
  IC50: 31 µM
[2]
  IC50: 0.56 µM

## CN1CCN(NC(=O)c2[nH]cnc2C(=O)Nc2ccc(NC(=O)c3ccccc3Cl)cc2)CC1 [Example 302, N^4-{4-[(2-chlorobenzoyl)amino]phenyl}-N^5-(4-methylpiperazin-1-yl)-1H-imidazole-4,5-dicarboxamide]
[1]
  IC50: 26 µM
[2]
  IC50: 1.06 µM
